Experimental data reported in PMC9741104, “Uptake of Flaxseed Dietary Linusorbs Modulates Regulatory Genes Including Induction of Heat Shock Proteins and Apoptosis” (Foods, 2022).
“And” between values parts separate entries of the source, which are not always exact repeats. Equal values may be shown once. Read-outs that look alike come from different tables or passages of the source. Marks after values point to notes of the source that are not given here. One block for each substance: values may come before it.

Legend:
[1] = Circular dichroism secondary structure estimate in aqueous-DMSO solution; type: physicochemical; details: CD spectra 260–200 nm, H2O/DMSO (3%, v/v), room temperature, CDNN deconvolution, triplicate
Protocol: Circular dichroism (CD) spectroscopy was performed on LO samples using a fresh solution of aqueous-dimethylsulfoxide solution (H2O/DMSO, 3%, v/v). CD measurements were completed using a Pistar 180 spectrometer (Applied Photophysics Ltd., Leatherhead, UK). Sample measurements were conducted at room temperature using a 0.01 cm cuvette (Hellma 106-QSP), and samples were scanned between 200–260 nm at 0.5 nm increments, with a scan rate of 10 nm/min. The instrument was calibrated using (+)-10-camphorsulfonic acid (290.5 nm wavelength). Experiments were performed in triplicate and are reported as mean ± standard deviation (SD). The secondary structure content of the samples was evaluated with the CDNN CD Spectroscopy Deconvolution software version 2.0.3.188 [30]. Molar ellipticities were calculated from molecular masses of 977.26–1074.37 Da for LOs. All spectra were corrected by background subtraction of H2O/DMSO (3%, v/v).

[2] = system: Calu-3 cells; test: Microarray analysis of apoptosis-regulating genes (Rt2 Profiler PCR Super Array); type: cell-based, human; design: key: +: genes over-expressed; NE: not expressed; –: genes under-expressed; details: Calu-3 exposed to LOs
Protocol: Human bronchial epithelial adenocarcinoma cell line (Calu-3) was obtained from the American Type Culture Collection (ATCC, Manassas, VA, USA). Calu-3 cell line was cultured in plastic culture flasks containing Modified Eagle’s Medium (MEM) and supplemented with 10% fetal bovine serum, glutamine (4 mM), and penicillin (100 U/mL)-streptomycin (100 μg/mL) solution. Cells were cultured to a density of 10^6 cells/mL before adding fresh media (on day 3). The cells were then grown at 37 °C under 5% CO2, and 100% humidity.
Microarray analysis was performed to determine LO effects on the expression of genes involved in regulating apoptosis (i.e., pro- or anti-apoptotic genes) in Calu-3 cells. These analyses were using an Rt2 Profiler PCR Super Array kit (Super Arrays Bioscience Corp., Frederick, MD, USA) following manufacturer’s instructions and were recorded using an MX3005P LightCycler (Stratagene, La Jolla, CA, USA).

[3] = system: HSP 70A; test: Induction of HSP 70A in nematodes (qRT-PCR); type: in vivo, Caenorhabditis elegans; details: 2 h exposure, normalized to GAPDH, three repetitions
Protocol: Gene expression of HSP 70A in nematodes was completed as described in Saini et al. (2011). Briefly, C. elegans N2 strains were cultured in the dark and at room temperature on sterile plates (10 mm; VWR, Edmonton, AB, Canada) containing 10% bacteriological agar (Sigma-Aldrich, Oakville, ON, Canada) and autoclaved Baker’s yeast (1%, w/v). C. elegans were sub-cultured every 14 days to fresh plates. Exposure experiments began using C. elegans, which were two weeks old. These cultures were exposed for 2 h to either DMSO (negative control) or various concentrations (0.1, 1.0, 10.0, and 100.0 µM) of LOB3 dissolved in DMSO. After exposure, these organisms were then re-cultured to assess the effects of LOB3 on HSP 70A gene expression. An unamended culture medium was used as the control treatment. After treatment, cultures were centrifuged at 400× g for 10 min at 4 °C. The pellet was retained and stored at −80 °C until further analysis.
RNeasy® Mini kits (Qiagen, Mississauga, ON, Canada) were used to extract total RNA from C. elegans lysates, according to the manufacturer’s instructions. RNA quality was confirmed and quantified using agarose gel electrophoresis and a Nano Drop® spectrophotometer (Thermo Fisher Scientific, Ottawa, ON, Canada), respectively. […] This was accomplished using a Stratagene MX3005P LightCycler (La Jolla, CA, USA). The glyceraldehyde-3-phosphate dehydrogenase gene (GAPDH; GenBank Accession No. X04818) was used as the reference housekeeping gene for qRT-PCR analyses. The primer pairs used during qRT-PCR are listed in Table 2. qRT-PCR reactions were performed using QuantiFast® SYBR® Green PCR kit (Qiagen, Mississauga, ON, Canada) following the manufacturer’s instructions. The thermocycler conditions included an initial denaturation at 95 °C for 5 min, followed by 45 cycles of denaturation at 95 °C for 30 s, annealing at 55 °C for 30 s and elongation at 60 °C for 45 s, to amplify the target gene. Relative gene expression levels were corrected against the GAPDH housekeeping gene using MXPro software. All analyses were completed in triplicate.

[4] = system: C. elegans; test: Lethality in nematode cultures; type: in vivo, Caenorhabditis elegans; details: 100 µM, 2 h exposure
[5] = system: cancer C6 cells; details: cited from earlier work
[6] = system: breast cancer cell line MDA-MB-231; details: doses lower than 10 µM; cited from earlier work
[7] = administered orally and intravenously, cited from earlier work
Excerpt: The combined characteristics of the strong immunosuppressive activity and low toxicity make LOB3 an immunosuppressive drug candidate. Other LOs and their analogs have also been investigated for their immunosuppressant activity. […] Similarly, [1–8-NαC], [1-(Rs, Ss)-MetO]-linusorb B1 (LO1OB1, also known as CLE) ...

[8] = LOs in pig adipose after flaxseed diet (HPLC-ToF-MS); details: pig fed diet with 15% extruded flaxseed meal; fat biopsy at 10th rib, chloroform extract, HPLC-ToF-MS molecular ions
Excerpt: Swine were fed a diet consisting of 15% flaxseed meal that was combined with other ingredients then extruded. Swine fat samples were taken from an 8 mm biopsy punch at the 10th rib, approximately 5 cm from the backbone [31]. The tissue samples were then extracted with chloroform and the extracts were dried, taken up in acetonitrile, and analyzed via direct loop injections using an Agilent 1100-series high-performance liquid chromatography (HPLC, Agilent, Santa Clara, CA, USA) equipped with a time-of-flight mass spectrometer (ToF-MS). Each sample extract was injected at a flow rate of 50 μL/min. The mobile phase consisted of 95% water: methanol containing 0.1% formic acid, and 5% acetonitrile.

Antiparallel (%) [1]: 0.00%
Parallel (%) [1]: 0.30%
Random Coil (%) [1]: 18.20%
α-Helix (%) [1]: 75.30%
β-Turn (%) [1]: 6.20%
Substance: [1–8-NαC], [1-(Rs, Ss)-MetO]- linusorb B1 [LO1OB1]
BAK1 (BCL2 antagonist/killer 1) up- or down-regulated [2]: NE
BCL2 (B-cell lymphoma 2) up- or down-regulated [2]: – ^c
CASP10 (Caspase 10) up- or down-regulated [2]: NE
CIDEA (Cell death-inducing DFFA-like effector A) up- or down-regulated [2]: +
CIDEB (Cell death-inducing DFFA-like effector B) up- or down-regulated [2]: +
Fas (TNF receptor superfamily member 6) up- or down-regulated [2]: +
FasL (Fas ligand) up- or down-regulated [2]: NE
HRK (Harakiri) up- or down-regulated [2]: +
TNF (Tumor necrosis factor) up- or down-regulated [2]: +
TP53 (Tumor protein p53) up- or down-regulated [2]: NE
TP53BP2 (Tumor protein p53 binding protein 2) up- or down-regulated [2]: +

Antiparallel (%) [1]: 0.00%
Parallel (%) [1]: 0.40%
Random Coil (%) [1]: 0.10%
α-Helix (%) [1]: > 75% and 98.90%
β-Turn (%) [1]: 0.60%
Substance: [1–9-NαC], [1-(Rs, Ss)-MetO]- linusorb B2 [LO1OB2]
BAK1 (BCL2 antagonist/killer 1) up- or down-regulated [2]: NE ^b
BCL2 (B-cell lymphoma 2) up- or down-regulated [2]: –
CASP10 (Caspase 10) up- or down-regulated [2]: +
CIDEA (Cell death-inducing DFFA-like effector A) up- or down-regulated [2]: +
CIDEB (Cell death-inducing DFFA-like effector B) up- or down-regulated [2]: +
Fas (TNF receptor superfamily member 6) up- or down-regulated [2]: +
FasL (Fas ligand) up- or down-regulated [2]: NE
HRK (Harakiri) up- or down-regulated [2]: +
TNF (Tumor necrosis factor) up- or down-regulated [2]: +
TP53 (Tumor protein p53) up- or down-regulated [2]: +
TP53BP2 (Tumor protein p53 binding protein 2) up- or down-regulated [2]: +

Substance: [1–9-NαC]-linusorb B3 [LOB3]
Antiparallel (%) [1]: 0.00%
Parallel (%) [1]: 0.3%
Random Coil (%) [1]: 0.1%
α-Helix (%) [1]: 98.90%
β-Turn (%) [1]: 0.7%
Increase in HSP 70A production ([3]; 0.1 µM): 30%
Increase in HSP 70A production ([3]; 1.0 µM): 3.5 fold
Increase in HSP 70A production ([3]; 10.0 µM): 30%
Lethality [4]: lethal
BAK1 (BCL2 antagonist/killer 1) up- or down-regulated [2]: + ^a
CASP10 (Caspase 10) up- or down-regulated [2]: NE
CIDEA (Cell death-inducing DFFA-like effector A) up- or down-regulated [2]: NE
CIDEB (Cell death-inducing DFFA-like effector B) up- or down-regulated [2]: +
Fas (TNF receptor superfamily member 6) up- or down-regulated [2]: +
FasL (Fas ligand) up- or down-regulated [2]: +
HRK (Harakiri) up- or down-regulated [2]: NE
TNF (Tumor necrosis factor) up- or down-regulated [2]: +
TP53 (Tumor protein p53) up- or down-regulated [2]: +
TP53BP2 (Tumor protein p53 binding protein 2) up- or down-regulated [2]: +
Cytotoxic effects ([5]; concentrations greater than 10.0 µM, changes in cell shape and reduction in cell numbers): cytotoxic effects were observed
Cytotoxic effects ([5]; doses lower than 10 µM): no cytotoxic effects
Cytotoxic effects [6]: no cytotoxic effects
Toxicity ([7]; mice): non-toxic
Toxicity ([7]; rats): non-toxic
Distribution to adipose tissue [8]: trace amounts
